Read-outs that look alike come from different tables or passages of the source.
What was measured:
[1] = tested on: HL-60 cells; experiment: Cell proliferation inhibition, CellTiterGlo viability assay, 4 days (Example 102); assay type: cell-based; conditions: 4 days treatment
Text: (§1) The objective of the study was to evaluate the ability of compounds of the invention, inhibitors of Menin/MLL interaction to inhibit cell proliferation. The proliferation inhibitory effect was investigated in two human MLL-leukemia cells selected on the bases of MLL fusion protein and listed in Table 1. HL-60 cell line was used as negative control (Table 3).
(§2) ATP is present in all metabolically active cells and is considered as a marker for cell viability and proliferation. The metabolic cell activity was determined using the CellTiter-Glo kit from Promega, an ATP monitoring system based on the production of luminescence by the reaction of ATP with added UltraGlo® recombinant luciferase (Kawano et al., 2016), according to the supplier's experimental recommendations.
(§3) The described assay evaluates the ability of representative compounds of invention to inhibit the cell proliferation in the human MLL-leukemia cells plus a negative control cell line.
(§4) The assay provides potency values (IC50) for each test compound at a single time point Day 4 (T4).
(§5) Seven concentrations of the NCEs (2.00E-05-6.67E-06-2.22E-06-7.41E-07-2.47E-07-8.23E-08-2.74E-08M), were assessed in duplicate in an individual test occasion in all the cell lines. MI-503 (Borkin et al., 2015) was used as reference compound and was tested at the same concentrations as the NCEs. 100% of proliferation is represented by the untreated cells (0.2% DMSO). The cell growth was monitored up to 4 days in culture.
(§6) MV4-11, MOLM-13 and HL-60 cells (see Table 2) were maintained in RPMI-1640 medium (Invitrogen, Cat. n. 618700, Batch n. 1965930) supplemented with 10% of Heat Inactivated FBS (Invitrogen, Cat n. 10500, Batch n. 08Q8078K) and 1% Pen-Strep (Invitrogen, Cat. N. 15140, Batch n. 1910859) and cultured at 37° C. in a humidified incubator with 5% CO2. All the cell lines grow in suspension and the cell density was maintained in a range of 2×10^5-1×10^6 viable cells/ml. Cells were pelleted at 130 g×5 min and conditioned medium was used to dilute the cell suspension.
(§7) Cells were plated in 96-well flat bottom microtiter plates at cell density of 15,000 cells/ml for HL-60, 1000 cells/ml for MOLM-13 and 10,000 cell/ml for MV4-11. Cells were treated with 0.2% DMSO (Sigma, D8418, batch n. SHBH4245V) or serial dilutions of compounds ([…]) in DMSO (0.2% final concentration). Cells were incubated in a 5% CO2 incubator at 37° C. for 4 days. A CellTiterGlo viability assay (Promega) was employed. Luminescence was read by using VictorV (Perkin Elmer) multilabel plate reader using the standard protocol for luminescence in 96 well plate. The experiment was performed in duplicate.
(§8) Data were expressed as % of inhibition compared to the 0.2% DMSO negative control, and was calculated as follows: % inhibition=100−[(RLU sample)×100/(RLU average controls*)]*cells containing 0.2% DMSO
(§9) CRCs were analysed by GraphPad and IC50 values were calculated by non-linear regression using 4 parameter-logistic equation. IC50 (μM) values were reported in the final data table. The curve fittings were performed leaving free all the parameters. Any constrain were reported in the results table.

[2] = tested on: MOLM-13 (MLL-AF9) cells; experiment: as above; assay type: cell-based, human; conditions: 4 days treatment
Text: as §1, §2, §3, §4, §5, §6, §7, §8, §9

[3] = tested on: MV4-11 (MLL-AF4) cells; experiment: as above; assay type: cell-based, human; conditions: 4 days treatment
Text: as §1, §2, §3, §4, §5, §6, §7, §8, §9

[4] = tested on: HL-60 cells; experiment: Long-term proliferation (LTP) assay, CellTiterGlo (Example 103); assay type: cell-based; conditions: for IC50: Homo sapiens
Experimental: (§10) The day of the experiment (TO) all the cell line suspensions were counted by Cell Viability Analyser, Vi-CELL and properly diluted with fresh medium to obtain the cell density reported in the Test System paragraph.
(§11) Cells were tested after 4 passages after thawing.
(§12) 200 μL/well and 150 μL/well of cell suspension were added into the 0.4 µL/well and 0.3 μL/well compound plates, respectively. • Cell plate containing 200 μL/well suspension was incubated at 37° C. in a humidified incubator with 5% CO2. • From each well of the 150 µL/well cell assay plate, 100 μL were harvested and transferred into a 96-well Optiplate (Perkin Elmer, Cat. n. 6005290) and cell viability was measured as described in 4.3 paragraphs (TO). • After four days in culture (T4) 150 μL/well of fresh medium were added into a new […] copy compound plate. • From each well of the 200 μL/well cell assay plate: • 100 μL were sampled for the cell viability measurement as described in 4.3 paragraphs (T4). • 50 μL were harvested and added to the 150 μL/well compound plate prepared as described in the first point to dilute 1:4 the cell suspension. • The cell assay plate diluted and containing 200 µL/well suspension were incubated at 37° C. in a humidified incubator with 5% CO2.
(§13) At T7-T11-T14 it was proceeded as described in T4, with the exception that no further cell dilution was carried out at T14.
(§14) Plates containing the samples to be tested were equilibrated at room temperature for approximately 30 min and then 30 μL/well of the Promega CellTiterGlo® reagent were added. Contents will be mixed for 5 min on an orbital shaker to induce cell lysis and then incubated at room temperature for an additional 10 min to stabilize the luminescent signal.
(§15) Luminescence was read by using VictorV (Perkin Elmer) multilabel plate reader using the standard protocol for luminescence in 96 well plate.
(§16) Data were expressed as % of inhibition compared to the 0.2% DMSO negative control, and was calculated as follows: % inhibition=100−[(RLU sample)×100/(RLU average controls*)] • *cells containing 0.2% DMSO
(§17) CRCs were analysed by GraphPad and IC50 values were calculated by non-linear regression using 4 parameter-logistic equation. IC50 (M) values were reported in the final data table.

[5] = tested on: RS4-11 (MLL-AF4) cells; experiment: as above; assay type: cell-based; conditions: for IC50: Homo sapiens, RS4-11 (MLL-AF4), LTP assay; for effect on cell viability at T4: RS4;11, increasing concentrations
Experimental: as §10, §11, §12, §13, §14, §15, §16, §17

[6] = tested on: MOLM-13 (MLL-AF9) cells; experiment: as above; assay type: cell-based, human; conditions: for IC50: Homo sapiens, MOLM-13 (MLL-AF9), LTP assay
Experimental: as §10, §11, §12, §13, §14, §15, §16, §17

[7] = tested on: MV4-11 (MLL-AF4) cells; experiment: as above; assay type: cell-based, human; conditions: for IC50: Homo sapiens, MV4-11 (MLL-AF4), LTP assay
Experimental: as §10, §11, §12, §13, §14, §15, §16, §17

[8] = target: T1, menin-MLL protein-protein interaction (Homo sapiens, UniProt O00255); conditions: S. Xu et al. Angewandte Chemie; cited from earlier work
T1 sequence (O00255 1-610): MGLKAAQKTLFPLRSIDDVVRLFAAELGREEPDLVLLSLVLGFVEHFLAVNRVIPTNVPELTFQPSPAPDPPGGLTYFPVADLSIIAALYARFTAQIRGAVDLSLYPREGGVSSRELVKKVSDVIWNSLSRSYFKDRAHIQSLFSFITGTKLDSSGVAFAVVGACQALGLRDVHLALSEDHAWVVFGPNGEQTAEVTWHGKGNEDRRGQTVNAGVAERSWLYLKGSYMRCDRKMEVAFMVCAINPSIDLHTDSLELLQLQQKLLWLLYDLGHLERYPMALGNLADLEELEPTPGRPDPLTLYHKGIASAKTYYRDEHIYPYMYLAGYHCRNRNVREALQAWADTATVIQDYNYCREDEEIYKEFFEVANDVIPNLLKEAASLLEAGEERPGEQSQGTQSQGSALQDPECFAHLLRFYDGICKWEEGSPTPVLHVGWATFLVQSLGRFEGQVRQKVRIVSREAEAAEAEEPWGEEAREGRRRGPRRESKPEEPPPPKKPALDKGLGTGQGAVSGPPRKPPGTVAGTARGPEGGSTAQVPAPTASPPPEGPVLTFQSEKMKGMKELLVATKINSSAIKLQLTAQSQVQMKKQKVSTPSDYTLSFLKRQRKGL

[9] = Homo sapiens, 96 h, read-out: IC50
[10] = Homo sapiens, 96 h, read-out: pIC50 (converted)
[11] = 96 h, Day 4, LTP assay, read-out: Day 4 IC50
[12] = 168 h, Day 7, LTP assay, read-out: Day 7 IC50
[13] = 264 h, Day 11, LTP assay, read-out: Day 11 IC50
[14] = 336 h, Day 14, LTP assay, read-out: Day 14 IC50
[15] = 96 h, Day 4, read-out: Day 4 IC50
[16] = 168 h, Day 7, read-out: Day 7 IC50
[17] = 264 h, Day 11, read-out: Day 11 IC50
[18] = 336 h, Day 14, read-out: Day 14 IC50

C=CC(=O)NC1CN(c2ccnc(NC(=O)Nc3ccc(-c4cc5c(N6CCOCC6)ncnc5[nH]4)cc3)c2)C1 [Compound 1]
% max ([1]; CellTiterGlo): 80% | IC50 ([1]; Homo sapiens, 96 h, CellTiterGlo, read-out: pIC50 (converted)): 195 nM | IC50 [1, 9]: 190 nM | % max [2]: 85% | IC50 [2, 9]: 200 nM | IC50 [2, 10]: 200 nM | % max [3]: 98% | IC50 [3, 9]: 150 nM | IC50 [3, 10]: 151 nM | IC50 [4, 11]: 790 nM | IC50 [4, 12]: 600 nM | IC50 [4, 13]: 780 nM | IC50 [4, 14]: 890 nM | IC50 [5, 15]: 550 nM | IC50 [5, 16]: 112 nM | IC50 [5, 17]: > 5000 nM | IC50 [6, 15]: 830 nM | IC50 [6, 16]: 450 nM | IC50 [6, 17]: 500 nM | IC50 [6, 18]: 720 nM | IC50 [7, 15]: 760 nM | IC50 [7, 16]: 580 nM | IC50 [7, 17]: 550 nM | IC50 [7, 18]: 380 nM

CN(C)C/C=C/C(=O)NC1CN(c2ccnc(NC(=O)Nc3ccc(-c4cc5c(N6CCOCC6)ncnc5[nH]4)cc3)c2)C1 [Compound 15]
IC50 [4, 11]: 1150 nM | IC50 [4, 12]: 680 nM | IC50 [4, 13]: 850 nM | IC50 [4, 14]: 890 nM | effect on cell viability at T4 ([4]; T4, increasing concentrations): fully inhibited | IC50 [5, 15]: 1450 nM | IC50 [5, 16]: 1550 nM | IC50 [5, 17]: > 5000 nM | effect on cell viability at T4 [5]: fully inhibited | IC50 [6, 15]: 1020 nM | IC50 [6, 16]: 410 nM | IC50 [6, 17]: 320 nM | IC50 [6, 18]: 330 nM | effect on cell viability at T4 ([6]; MOLM-13, T4, increasing concentrations): fully inhibited | IC50 [7, 15]: 650 nM | IC50 [7, 16]: 460 nM | IC50 [7, 17]: 350 nM | IC50 [7, 18]: 350 nM | effect on cell viability at T4 ([7]; MV4-11, T4, increasing concentrations): fully inhibited

C=CC(=O)NC1CN(c2ccnc(NC(=O)Nc3ccc(-c4nc5c(N6CCOCC6)nccc5[nH]4)cc3)c2)C1 [Compound 23]
IC50 [4, 13]: > 5000 nM | activity up to T14 ([4]; up to T14): absence of activity | IC50 [5, 15]: 1480 nM | IC50 [5, 16]: 930 nM | IC50 [5, 17]: > 5000 nM | effect on cell viability at T4 [5]: showed an effect | IC50 ([6]; 96 h, heading: Day 4 IC50, Day 4, read-out: Day 4 IC50): > 5000 nM | IC50 ([6]; 168 h, heading: Day 7 IC50, Day 7, read-out: Day 7 IC50): > 5000 nM | IC50 [6, 17]: 1410 nM | IC50 [6, 18]: 3890 nM | change of effect with the time in culture ([6]; MOLM-13, along the 14 days in culture): increase of the effect | IC50 [7, 16]: 4370 nM | IC50 [7, 17]: 1700 nM | IC50 [7, 18]: 1230 nM | change of effect with the time in culture ([7]; MV4-11, along the 14 days in culture): increase of the effect

COC(=O)N[C@H]1CCC[C@@H]1[C@](C#N)(c1cccc(F)c1)C1CCN(CC2CN(c3ccc(S(=O)(=O)C4CN(C(=O)/C=C/CN(C)C)C4)cc3)C2)CC1 [Compound M-525]
potency relative to the corresponding reversible inhibitors [8]: > 30 times

Cc1c(CN2CCC(Nc3ncnc4sc(CC(F)(F)F)cc34)CC2)ccc2c1cc(C#N)n2Cc1cn[nH]c1 [MI-503, reference compound]
% max ([1]; CellTiterGlo): 103% | pIC50 ([1]; CellTiterGlo): 6.38 | IC50 ([1]; CellTiterGlo, read-out: IC50): 420 nM | % max [2]: 98% | pIC50 [2]: 6.63 | IC50 ([2]; read-out: IC50): 230 nM | % max [3]: 100% | pIC50 [3]: 6.73 | IC50 ([3]; read-out: IC50): 190 nM

Reference: US12116371B2, “Substituted pyridines as irreversible inhibitors of menin-MLL interaction” (BIOMEA FUSION, INC., priority 2018, dated 2024)
